Reference: ChEMBL document CHEMBL3507680, “University of Dundee, Gates Library screen for HepG2 cell viability”

Experiment: Human HepG2 cell viability assay in 384 well format
Type: toxicity, cell-based
Set-up: dose 125 nL, time 70.5 hour; cytotoxicity at 70.5 h: concentration not given beside the values
Conditions: HepG2 cells, read-out: Inhibition

Row | SMILES | cytotoxicity at 70.5 h [%]
1 | COc1cccc(COCC(=O)N2CCN(S(C)(=O)=O)CC2)c1 | -4.61
2 | O=C(Nc1cccnc1-n1cc(Cl)cn1)C1CC1 | -27.5
3 | Cc1nc(N(C)C)nc(C)c1NC(=O)c1ccccc1C(F)(F)F | -11
4 | N#Cc1ccc(NC2CCN(c3ncccn3)CC2)cc1C(F)(F)F | 5.96
5 | CC(NC(=O)N(C)Cc1ccc(Cl)s1)c1ccccn1 (configuration not stated) | 1.2
6 | Cc1nn(Cn2ccc(C(=O)N3CCCC3)n2)c(C)c1Cl | -9.33
7 | c1cc(N2CCCCC2)ccc1-c1noc(CN2CCOCC2)n1 | -0.0335
8 | Cc1nnc(NC(=O)N2CCCN(C3CCCC3)CC2)s1 | -2.92
9 | O=c1[nH]cc(N2CCCCC2)c(=O)[nH]1 | -3.72
10 | COCCC(=O)N1C[C@H](C(C)C)[C@@H](N(C)C)C1 | -14.3
11 | COCCN1CC2(CCCN(c3ncc(Cl)cc3F)C2)CCC1=O (configuration not stated) | 3.19
12 | Cc1ccc(-c2n[nH]cc2CNCC2CCS(=O)(=O)C2)o1 (configuration not stated) | 11.2
13 | O=C(CCc1ccsc1)NS(=O)(=O)Cc1ccon1 | -0.591
14 | Cn1cc(C(=O)N2CC[C@@H]3[C@@H]2CCN3Cc2cccc(C#N)c2)cn1 | 0.809
15 | CCC1(O)CCCN(c2nc(-c3ccccn3)nc3c2c(C)nn3C)C1 (configuration not stated) | -2.92
16 | COCCCNC(=O)N1CCN(C(=O)c2nsc3ccc(C)cc23)CC1 | 20.4
17 | CN(Cc1noc2c1CCCC2)C(=O)C1CCOc2ccccc2C1 (configuration not stated) | -3.46
18 | CCn1c(C2CCN(C(=O)c3ccc4sc(C)nc4c3)CC2)n[nH]c1=O | -17.3
19 | Cc1nn2c(N3CCCC(C(N)=O)C3)cc(-c3ccccc3)nc2c1C (configuration not stated) | -3.49
20 | Cc1nn(C)c(C)c1C1CCCN1Cc1nnc(C2CC2)n1C (configuration not stated) | -1.77
21 | CCN(CC)S(=O)(=O)N1CCCC1c1nnc2n1CCCCC2 (configuration not stated) | -8.56
22 | O=C1CC(N(C(=O)c2ccc(Cl)c(Cl)c2)C2CC2)C(=O)N1 (configuration not stated) | -4.14
23 | CN1C(=O)CC2(CCN(S(=O)(=O)N(C)C)CC2)c2ccccc21 | 33.2

Row | SMILES | cytotoxicity at 70.5 h [%]
24 | CCC(C)NC(=O)CCn1ccc(C)n1 (configuration not stated) | -6.22
25 | CCc1[nH]ncc1C(=O)N1CCN(c2nc(C)cc(OC)n2)CC1 | -4.16
26 | Cc1ccc(-c2cc(N)c(=O)n(C(C)C(N)=O)n2)o1 (configuration not stated) | -5.11
27 | COc1ccc(CC(=O)N(C)C2CCN(C)C2=O)cc1F (configuration not stated) | -6.33
28 | N#Cc1cccnc1N1CCC(C2CCCCCN2C(N)=O)CC1 (configuration not stated) | -3.78
29 | Fc1cc(F)cc(CN2CCC(c3cc4ncccc4cn3)CC2)c1 | 1.34
30 | Cc1cc(C(F)(F)F)cc(N2CCC3(CCC(=O)N(CCO)C3)CC2)n1 | -4.65
31 | CC(=O)N1CCC2(CC1)CN(CC(C)C)CC21CCNC1=O (configuration not stated) | 13.6
32 | O=C(c1ccc(COc2ccc(Cl)cc2)o1)N1N=CCC1(O)C(F)(F)F (configuration not stated) | 10.7
33 | COCCN1Cc2ccccc2C2(CCN(C(=O)c3ccno3)CC2)C1 | 2.49
34 | COc1ccccc1CN1CC(O)CN(C(=O)OCC(C)C)CC1=O (configuration not stated) | -10.9
35 | CCOc1ccc(NC(=O)NCC(C)(O)c2cccs2)cc1 (configuration not stated) | -8.04
36 | Cc1nc2ccc(C(=O)N3C[C@@H](O)[C@H](N4CCCC4)C3)cc2[nH]1 | -1.69
37 | Cn1c(C2CC2)nc2c1CCN(CCOc1cccc(F)c1)C2 | 5.07
38 | CS(=O)(=O)N1CCN(CC(O)COc2ccc(F)cc2)CC1 (configuration not stated) | -11.1
39 | Cc1ccccc1CNCc1cc(Cl)ccc1O | -11.5
40 | O=C(CCn1ccc(=O)[nH]c1=O)N1CCC(OCc2cccnc2)CC1 | 27.2
41 | CC(C)N1CCC(CC(=O)NC[C@H]2CCc3ccccc3O2)CC1 | -11.9
42 | CC(C)c1cc(C(=O)N2CCCC(c3cc(=O)nc4n3CCC4)C2)no1 (configuration not stated) | -11.3
43 | Cc1cnn(CCNCC(O)COc2c(Cl)cccc2Cl)c1 (configuration not stated) | -4.22
44 | Cc1nc(CN2CCCN(Cc3nc4c(F)cccc4[nH]3)CC2)no1 | -10.4
45 | Cc1ncnc2c1CCN(C(=O)c1ccncc1)CC2 | 8.77
46 | O=C(NCCN1CCNC1=O)c1cnc(-c2cccnc2)nc1 | -3.28

Row | SMILES | cytotoxicity at 70.5 h [%]
47 | Cn1ccc(C(=O)N2CCOC(c3ccccn3)C2)cc1=O (configuration not stated) | 6.02
48 | COCC(=O)NCC1CCCN(Cc2cc3ccccc3[nH]2)C1 (configuration not stated) | -13.5
49 | CCCc1nc(C(=O)N[C@H]2COC[C@@H]2N2CCN(C)CC2)cs1 | -7.8
50 | Cc1cc(CN2CCC(CNS(=O)(=O)c3ccc(C)s3)CC2)c(C)o1 | -5.87
51 | O=S(=O)(C1CC1)N1CCCC2(COCCN(c3nncs3)C2)C1 (configuration not stated) | 12.7
52 | CC(C)C(=O)NCCNc1nccc(-c2cc(C(=O)O)ccn2)n1 | -0.446
53 | Cc1nc2cc(=O)[nH]n2c(C)c1CC(=O)NCc1ccc(C#N)cc1 | -0.462
54 | CN(C)C(=O)Cc1nc(CN2CCCC2Cn2cccn2)cs1 (configuration not stated) | -6.16
55 | COCCN1C(=O)[C@H]2CC[C@@H]1CN(c1nccc(C)n1)C2 | -9.1
56 | c1ccc2nc(N3CCCC(Cn4cncn4)C3)cnc2c1 (configuration not stated) | -1.5
57 | O=C1NC2(Nc3ncccc31)C(=O)Nc1c2ccc(Cl)c1F (configuration not stated) | -6.95
58 | COc1cccc(CC(=O)N2CCc3ncnc(NCCO)c3CC2)c1 | -9.99
59 | O=C1CCN(CCS(=O)(=O)c2ccc(Cl)cc2)CCN1 | -11.7
60 | COc1ccc(C(=O)N2CCCC(C)C2)cc1F (configuration not stated) | -2.9
61 | Cc1cn2c(n1)CCC(NC(=O)CCCn1cncn1)C2 (configuration not stated) | 15.9
62 | CCCn1ccnc1CN1CCCC1c1cccc(-n2ccnc2)n1 (configuration not stated) | 11
63 | Cc1nc(NCCSc2ccccn2)c2c(C)noc2n1 | -4.96
64 | COCCOCC(=O)N(Cc1cccc(C)c1)C(C)C | 3.91
65 | CC(=O)N1CC2(CCCN(Cc3ccc(Cl)cc3)C2)Cc2ccccc21 (configuration not stated) | 5.61
66 | CN(Cc1cn2c(n1)CN(C1CCOCC1)CC2)Cc1ccco1 | 24.6
67 | CN(Cc1ccncn1)c1nccc(CCC(F)(F)F)n1 | 23
68 | Cc1ccc(NC(=O)C2CSCN2C(=O)c2ccncc2)c(C)c1 (configuration not stated) | -4.2
69 | CC(C)C[C@H](N)C(=O)N1CCSc2ccccc2C1 | 0.624

Row | SMILES | cytotoxicity at 70.5 h [%]
70 | CCS(=O)(=O)CCSc1cccc(C#N)c1 | -23.7
71 | CS(=O)(=O)NCC1CCCN(C(=O)COCC2CC2)C1 (configuration not stated) | -22.4
72 | CC(C)N(C)C(=O)COc1ccc(-c2noc(C3CCCO3)n2)cc1 (configuration not stated) | 5.4
73 | O=C(N[C@@H]1CN(c2ncccn2)C[C@@H]2CCCO[C@@H]21)c1cnccn1 | 2.24
74 | O[C@H]1Cc2ccccc2[C@H]1n1ccnc1-c1cc2n(n1)CCNC2 | -2.39
75 | O=C1CC2(CCN(CC3CCOC3)CC2)CN1Cc1cc(F)cc(F)c1 (configuration not stated) | -6.96
76 | COCC1c2nnn(C)c2CCN1C(=O)COc1ccccc1C (configuration not stated) | -4.54
77 | Cc1nn(-c2ccccc2)cc1C(=O)N1CCCC1c1cnn(C)c1 (configuration not stated) | -6.59
78 | CN1CCC(c2nc3ccc(-c4cccc(F)c4)cn3n2)CC1 | -6.5
79 | CCc1cnc(CN(C)C2CCN(CC(=O)Nc3cc(C)on3)C2)o1 (configuration not stated) | 11.1
80 | CC(CO)(NC(=O)Nc1nncs1)C1CCCCC1 (configuration not stated) | 2.4
81 | NC(=O)c1ccc(S(=O)(=O)NC2CCN(Cc3ccccc3)C2=O)cc1 (configuration not stated) | -8.89
82 | Cc1cc(-c2nccs2)nc(C2CCN(Cc3ccccn3)CC2)n1 | -3.72
83 | CN(C)Cc1cnc2n1CCN(C(=O)Cc1ccsc1)CC2 | 8.26
84 | Cc1nc(N(C)C)ncc1C(=O)N(Cc1ccncc1)CC1CCCO1 (configuration not stated) | -4.9
85 | C[C@@H]1CN(Cc2cccnc2)C[C@]12CCN(CCN1CCCC1)C2=O | -4.97
86 | CCN(CC)S(=O)(=O)N1CC[C@H](c2ccccc2)[C@H]2NCCCC[C@H]21 | -3.25
87 | CC(=O)NCCNC(=O)NCc1ccc(Br)cc1Cl | -0.47
88 | NC(=O)C1CCCN(c2ccc(CNC(=O)c3cnsn3)cc2)C1 (configuration not stated) | -7.99
89 | O=C(CNC(=O)c1cnc2ccccc2c1O)NCCCn1ccnc1 | -16.5
90 | CN(C)CC(C)(C)Cn1cnc(-c2ccccc2)c1-c1cccc(O)c1 | -10.8
91 | Cc1nccc(CNC(=O)N2CCN(Cc3ccccc3)C[C@H]2C)n1 | -8.68
92 | O=C(c1cccc(Cl)c1Cl)N1CCN(CC(O)Cn2cccn2)CC1 (configuration not stated) | -2.95

Row | SMILES | cytotoxicity at 70.5 h [%]
93 | CCOc1cc(CNCc2nc(C)cc(=O)[nH]2)c(Cl)cc1OC(C)C | -3.61
94 | Cc1ccc(Cl)cc1NC(=O)Cn1cc(C(=O)O)ccc1=O | 4.77
95 | Cc1ccc([C@@H]2CN(C(=O)c3cc(C)no3)C[C@H]2NC(=O)C2CC2)cc1 | -6.47
96 | Cc1ccc(CN2CCC3(C2)C(=O)N(CC(N)=O)c2ccccc23)s1 (configuration not stated) | -3.49
97 | Cc1ccc(C)c(C(=O)N2CCC3(CCC(=O)N(CC(N)=O)C3)CC2)c1 | 29.9
98 | CC1CCCN(C(=O)Cn2cc(I)cn2)C1 (configuration not stated) | -3.76
99 | CCOCCCNC(=O)Cc1cccc(F)c1 | 1.71
100 | CCc1ccc(CN2CCC3(CCCN(C(=O)c4cnccn4)C3)C2)o1 (configuration not stated) | 2.89
101 | CCN1CCN(C)C(=O)C12CCN(Cc1cccc(C)c1)CC2 | 2.19
102 | Nc1nnc(SCc2cc(=O)n3c4c(sc3n2)CCCC4)s1 | -8.05
103 | Cc1c(CC(=O)N2CCN(CC(F)(F)F)CC2)nnn1-c1ccccc1 | -11.3
104 | COCCN1CC(c2nc(CC3CCN(C)CC3)no2)CCC1=O (configuration not stated) | -11.5
105 | Cc1nn(C)c2c(NCc3cccnc3)nc(C3CC3)nc12 | -3.52
106 | O=C(c1cscn1)N1CC[C@@H]2[C@@H]1CCN2C1CCOCC1 | -3.43
107 | Cc1nn(C)c2c(=O)n(Cc3ccc(Cl)cc3)nnc12 | -9.56
108 | Cc1csc(CN2CC[C@H]3C(=O)N(c4cccnc4)CCO[C@H]3C2)n1 | 11
109 | CC(C)CN(C)Cc1nc2c(cnn2C)c(=O)[nH]1 | 12.1
110 | Cc1[nH]ncc1C(=O)NCC(CO)Cc1ccc(Cl)cc1 (configuration not stated) | -5.24
111 | COCC1c2nnn(CC3CC3)c2CCN1C(=O)c1cc(C)[nH]c1C (configuration not stated) | -9.95
112 | Cc1cc(N2CC[C@H](O)C2)n2nc(C)c(C)c2n1 | -1.97
